Read-outs that look alike come from different tables or passages of the source.
How the values were obtained:
Assay type in all cases: cell-based
[1] = system: H358 cells; assay: Cell viability assay (CELLTITER-GLO), H358 cells; conditions: 3 days; for viability at 10 µM: Table 1, compound at 10 μM, read-out: Effect on H358 cell viability (% DMSO)
Summary of the method: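 Luminescent ATP read-out (CellTiter-Glo) after 3-day incubation at 37 °C of H358 cells plated at 4,000/well in RPMI 1640 with 10% FBS. Values are either IC50 bins (A ≤1 μM through D >10 μM) or % of DMSO viability at 10 μM or 1 μM, bins A <10% through D ≥50%.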

[2] = system: MOLM-13 cells; assay: Cell viability assay (CELLTITER-GLO), MOLM-13 cells; conditions: Homo sapiens, MOLM-13, 72 h, 3 days, read-out: Effect on MOLM-13 cell viability (% DMSO); for viability at 10 µM: compound at 10 μM; for viability at 1 µM: Table 3, compound at 1 μM
Summary of the method: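 Viability, as % of DMSO control, was read by CellTiter-Glo luminescence after a 3-day compound exposure (single dose of 10 μM or 1 μM) at 37 °C. Cells plated at 4,000/well in RPMI 1640 with 10% FBS. Results reported as categories A <10%, B 10–<25%, C 25–<50%, D ≥50%.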

[3] = system: H23 cells; assay: Cell viability assay (CELLTITER-GLO), H23 cells; conditions: Table 4, 3 days
Summary of the method: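 Luminescent CellTiter-Glo readout after 3-day compound treatment (37° C, 5% CO2) of H23 cells plated at 4,000 cells/well in RPMI 1640 plus 10% FBS, DMSO as control. IC50 values given as categorical ranges.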

[4] = system: MV-4-11 cells; assay: Cell viability assay (CELLTITER-GLO), MV-4-11 cells; conditions: Homo sapiens, MV4-11, 72 h; Table 1; compound at 10 μM, 3 days; read-out: Effect on MV-4-11 cell viability (% DMSO)
Method: MOLM-13 cells, MV-4-11 cells, H23, and H358 cells were independently cultured in RPMI 1640 media supplemented with 10% fetal bovine serum, streptomycin and penicillin. The cells were plated in white walled 96-well plates at 4,000 cells/well. The cells were incubated in DMSO (control) or a compound for 3 days at 37° C. under 5% CO2. A CELLTITER-GLO® reagent (100 μL) was then added to each well. After a 10 min incubation with shaking, luminescence was measured using an ENVISION® multimode plate reader.
In Tables 1 and 2, each compound was tested at 10 μM; and in Table 3, each compound was tested at 1 μM. In Tables 1 to 3, the cell viability values as % DMSO are reported as “A,” “B,” “C,” or “D;” where “A” represents a % viability value of less than 10%; “B” represents a % viability value of no less than 10% and less than 25%; “C” represents a % viability value of no less than 25% and less than 50%; and “D” represents a % viability value of no less than 50%. Compound A is […]

[5] = target: T1, KRAS protein (Homo sapiens, UniProt P01116, G12C); assay: Protein degradation assay (western blot) in H358 cells; conditions: 1 μM, 24 h
T1 construct: endogenous in cells; host or cells: H358 cells
T1 sequence (P01116 1-188 isoform P01116-2 G12C): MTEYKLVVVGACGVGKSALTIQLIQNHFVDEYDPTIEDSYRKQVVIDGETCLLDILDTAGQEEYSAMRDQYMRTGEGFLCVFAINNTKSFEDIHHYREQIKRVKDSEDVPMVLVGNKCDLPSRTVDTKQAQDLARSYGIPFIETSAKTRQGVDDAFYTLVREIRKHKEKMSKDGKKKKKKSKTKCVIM
Method: H358 cells were grown in RPMI 1640 media supplemented with 10% fetal bovine serum, streptomycin, and penicillin. The cells were plated in 10 cm plates in the growth media. The next day, the cells were rinsed in 1× PBS with the media replaced by RPMI1640 supplemented with 2.5% fetal bovine serum, streptomycin, and penicillin. The cells were then treated with 1 μM of a compound for 24 h. Whole cell extracts were prepared using an immunoprecipitation (IP) lysis buffer. Briefly, the cells were washed once in PBS, and the cell pellets were resuspended in the IP lysis buffer and incubated for 15 min on ice. Cells debris was removed by centrifugation and the cleared whole cell lysates were transferred to new tubes for further analysis.
For a western blot analysis, the whole cell protein extracts were separated on 12% SDS-polyacrylamide gels, transferred to nitrocellulose, and probed with primary antibodies. Membranes were subsequently washed and probed with IRDYE® secondary antibodies. The signals were detected using an ODYSSEY® Imaging System. The antibodies used in the assay included anti-KRAS; β-actin mouse monoclonal antibody; IRDYE® 680RD goat anti-rabbit antibody; and IRDYE® 800CW goat anti-mouse antibody.

SMILES | viability at 10 µM ([1]; Homo sapiens, NCI-H358, 72 h) [%] | IC50 ([1]; Homo sapiens, NCI-H358, 72 h, Table 4, read-out: Inhibition of H358 cells, IC50) [µM] | viability at 10 µM ([2]; Table 1) [%] | viability at 1 µM [2] [%] | IC50 ([3]; Homo sapiens, NCI-H23, 72 h, read-out: Inhibition of H23 cells, IC50) [µM] | viability at 10 µM [4] [%] | Inhibition of H358 cells, IC50 (class) ([1]; Table 4) | Inhibition of H23 cells, IC50 (class) [3] | viability at 10 µM ([2]; Table 2) [%] | degradation of KRAS protein [5]
C=CC(=O)N1CCN(c2ncnc3c(F)c(-c4c(O)cccc4F)c(Cl)cc23)CC1 [A, 1-(4-(6-chloro-8-fluoro-7-(2-fluoro-6-hydroxyphenyl)quinazolin-4-yl)piperazin-1-yl)prop-2-en-1-one, reference compound] | 25 to 50 | 0.99 | 25 to 50 | ≥ 50 | 4.3 | 25 to 50 |  |  |  | 
C=CC(=O)N1CCN(c2ncnc3c(F)c(-c4c(F)cccc4OCCOCCOCCC(=O)NCCNc4cccc5c4C(=O)N(C4CCC(=O)NC4=O)C5=O)c(Cl)cc23)CC1 (stereo not shown) [Compound 1, 3-(2-(2-(2-(4-(4-Acryloylpiperazin-1-yl)-6-chloro-8-fluoroquinazolin-7-yl)-3-fluorophenoxy)ethoxy)ethoxy)-N-(2-((2-(2,6-dioxopiperidin-3-yl)-1,3-dioxoisoindolin-4-yl)amino)ethyl)propanamide] | 25 to 50 |  | 25 to 50 | ≥ 50 |  | 10 to 25 | C′ | C′ |  | 
C=CC(=O)N1CC(N2Cc3ccc(-c4cc(O)cc5ccccc45)cc3N(CCOCCOCCOCCNc3cccc4c3C(=O)N(C3CCC(=O)NC3=O)C4=O)C2=O)C1 (stereo not shown) [Compound 2, 4-((2-(2-(2-(2-(3-(1-Acryloylazetidin-3-yl)-7-(3-hydroxynaphthalen-1-yl)-2-oxo-3,4-dihydroquinazolin-1(2H)-yl)ethoxy)ethoxy)ethoxy)ethyl)amino)-2-(2,6-dioxopiperidin-3-yl)isoindoline-1,3-dione] | 10 to 25 |  | 10 to 25 |  |  | < 10 |  |  |  | 
C=CC(=O)N1CCN(c2ncnc3c(F)c(-c4c(F)cccc4OCCCCCCCN4CCC(c5cc(F)cc6c5CN(C5CCC(=O)NC5=O)C6=O)CC4)c(Cl)cc23)CC1 (stereo not shown) [Compound 36, 3-(4-(1-(7-(2-(4-(4-Acryloylpiperazin-1-yl)-6-chloro-8-fluoroquinazolin-7-yl)-3-fluorophenoxy)heptyl)piperidin-4-yl)-6-fluoro-1-oxoisoindolin-2-yl)piperidine-2,6-dione] |  |  |  |  |  |  | A′ | A′ | < 10 | about 60%
C=C(Cl)C(=O)N1CCN(c2nc(OC[C@@H]3CCCN3C)nc3c(F)c(-c4c(F)cccc4OCCCCCCCN4CCC(c5cc(F)cc6c5CN(C5CCC(=O)NC5=O)C6=O)CC4)c(Cl)cc23)C[C@H]1CC#N (stereo partly drawn) [Compound 128, 2-((2R)-4-(6-Chloro-7-(2-((7-(4-(2-(2,6-dioxopiperidin-3-yl)-6-fluoro-1-oxoisoindolin-4-yl)piperidin-1-yl)heptyl)oxy)-6-fluorophenyl)-8-fluoro-2-(((S)-1-methylpyrrolidin-2-yl)methoxy)quinazolin-4-yl)-1-(2-chloroacryloyl)piperazin-2-yl)acetonitrile] |  |  |  |  |  |  | A′ | A′ | < 10 | 
C=C(Cl)C(=O)N1CCN(c2ncnc3c(F)c(-c4c(F)cccc4OCCC4CCC(CCN5CCC(c6cc(F)cc7c6CN(C6CCC(=O)NC6=O)C7=O)CC5)CC4)c(Cl)cc23)C[C@H]1CC#N (stereo partly drawn) [Compound 129, 2-((2R)-4-(6-Chloro-7-(2-(2-(4-(2-(4-(2-(2,6-dioxopiperidin-3-yl)-6-fluoro-1-oxoisoindolin-4-yl)piperidin-1-yl)ethyl)cyclohexyl)ethoxy)-6-fluorophenyl)-8-fluoroquinazolin-4-yl)-1-(2-chloroacryloyl)piperazin-2-yl)acetonitrile] |  |  |  |  |  |  | A′ | B′ | < 10 | 
C=C(Cl)C(=O)N1CCN(c2ncnc3c(F)c(-c4c(F)cccc4OCCC4CCC(CCN5CCC(c6cc(F)cc7c6CN(C6CCC(=O)NC6=O)C7=O)CC5)C4)c(Cl)cc23)CC1 (stereo not shown) [Compound 130, 3-(4-(1-(2-(3-(2-(2-(6-Chloro-4-(4-(2-chloroacryloyl)piperazin-1-yl)-8-fluoroquinazolin-7-yl)-3-fluorophenoxy)ethyl)cyclopentyl)ethyl)piperidin-4-yl)-6-fluoro-1-oxoisoindolin-2-yl)piperidine-2,6-dione] |  |  |  |  |  |  | B′ | A′ | < 10 | 
CCC(=O)N1CCN(c2ncnc3c(F)c(-c4c(F)cccc4OCCNCC(=O)N4CCC(C#Cc5cccc6c5CN(C5CCC(=O)NC5=O)C6=O)CC4)c(Cl)cc23)CC1 (stereo not shown) [Compound 133, 3-(4-((1-((2-(2-(6-Chloro-8-fluoro-4-(4-propionylpiperazin-1-yl)quinazolin-7-yl)-3-fluorophenoxy)ethyl)glycyl)piperidin-4-yl)-1λ^5-ethynyl)-1-oxoisoindolin-2-yl)piperidine-2,6-dione] |  |  |  |  |  |  | D′ | D′ | ≥ 50 | 
